# Measurements: patent US4593090A, “Novel nitrosourea compounds, method for preparing same, and pharmaceutical composition containing same” (Gogo Kimura, priority 1981, dated 1986)
# Columns and labels:
# [1] = Acute toxicity (LD50, Behrens-Karber method); format: in vivo, ICR mice; conditions: ip, mortality during 30 days; for LD50 at 720 h: mouse, in vivo
# Description: Test compounds, dissolved or suspended in 0.5% aqueous CMC, were each intraperitoneally administered to ICR mice in a dose of 0.1 ml per 10 g body weight. LD50 (mg/kg) value of each test compound was calculated from the mortality of mice during 30 days by the Behrens-Karber method.
# Leukemia L1210 = test: Activity against Leukemia L1210, intraperitoneal, increase in life span of mice; format: in vivo, female mice (BDF1 family); conditions: for ED (maximum ILS) / ED30: Mus musculus, L1210, ip; for ED (maximum ILS): read-out: O.D. (optimum dosage); for ED30: read-out: ILS30; for Survivors after 60 days / Max. ILS % / Therapeutic ratio TR: ip; for Survivors after 60 days: 6-membered group; for Max. ILS %: 60-day observation, versus control; for Therapeutic ratio TR: O.D./ILS30
# In short: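 L1210 cells (1×10^5) into abdominal cavity of female BDF1 mice, 20–23 g, n=6/group. Dosing 24 h post-implant, ip or po, qd ×5. 60-day observation; ILS% = mean survival vs untreated control; T.R. = O.D./ILS 30.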
# [2] = ip once a day for 5 successive days, daily dosage giving maximum increase of life span
# [3] = ip once a day for 5 successive days, daily dosage increasing average survival days by 30%
SMILES,LD50 at 720 h [1] [mg/kg],ED (maximum ILS) (Leukemia L1210; [2]) [mg/kg],ED30 (Leukemia L1210; [3]) [mg/kg],Survivors after 60 days (Leukemia L1210),Max. ILS % (Leukemia L1210) [%],Therapeutic ratio TR (Leukemia L1210),LD50 ([1]; 43200 min) [mg/kg],O.D. (optimum dosage) (Leukemia L1210; [2]) [mg/kg],ILS30 (Leukemia L1210; [3]) [mg/kg]
"CCC(C)N(C[C@H]1O[C@H](OC2CCCCC2)[C@H](O)[C@@H](O)[C@@H]1O)C(=O)N(CCCl)N=O (stereo partly drawn) [Compound 37, 3-sec-butyl-3-(cyclohexyl α-D-glucopyranose-6-yl)-1-(2-chloroethyl)-1-nitrosourea]",605,200,3.69,5/6,> 620,54.2,–,–,–
"CCCCO[C@H]1O[C@H](CN(CC(C)C)C(=O)N(CCCl)N=O)[C@@H](O)[C@H](O)[C@H]1O [Compound 9, 3-isobutyl-3-(n-butyl α-D-glucopyranose-6-yl)-1-(2-chloroethyl)-1-nitrosourea]",440,150,3.33,6/6,> 700,45.0,–,–,–
"COCCCOC1OC(CO)C(O)C(N(CC(C)C)C(=O)N(CCCl)N=O)C1O [Compound 77, 3-isobutyl-3-(3-methoxy-n-propyl α-D-glucopyranose-3-yl)-1-(2-chloroethyl)-1-nitrosourea]",685,200,5.08,4/6,> 425,39.4,–,–,–
"COC(C)CO[C@H]1O[C@H](CN(CC2CC2)C(=O)N(CCCl)N=O)[C@H](O)[C@H](O)[C@H]1O (stereo partly drawn) [Compound 116, 3-cyclopropylmethyl-3-(2-methoxy-n-propyl α-D-galactopyranose-6-yl)-1-(2-chloroethyl)-1-nitrosourea]",450,150,2.51,6/6,> 700,59.8,–,–,–
"COCC(C)OC1OC(CO)C(O)C(O)C1N(CC1CC1)C(=O)N(CCCl)N=O [Compound 72, 3-cyclopropylmethyl-3-(1-methyl-2-methoxyethyl α-D-glucopyranose-2-yl)-1-(2-chloroethyl)-1-nitrosourea]",550,180,4.53,5/6,> 625,39.7,–,–,–
"COc1ccc(CO[C@H]2O[C@H](CN(CC(C)C)C(=O)N(CCCl)N=O)[C@@H](O)[C@H](O)[C@H]2O)cc1 [Compound 51, 3-isobutyl-3-(p-methoxybenzyl α-D-glucopyranose-6-yl)-1-(2-chloroethyl)-1-nitrosourea]",350,120,3.3,4/6,> 430,36.4,–,–,–
"COc1ccc(CN(C[C@H]2O[C@H](OCC(C)C)[C@H](O)[C@@H](O)[C@@H]2O)C(=O)N(CCCl)N=O)cc1 [Compound 21, 3-(p-methoxybenzyl)-3-(isobutyl α-D-glucopyranose-6-yl)-1-(2-chloroethyl)-1-nitrosourea]",585,200,5.45,3/6,> 360,36.7,–,–,–
"CCC(COC)O[C@H]1O[C@H](CN(CC(C)(C)C)C(=O)N(CCCl)N=O)[C@@H](O)[C@H](O)[C@H]1O (stereo partly drawn) [Compound 196, 3-neopentyl-3-(1-methoxy-sec-butyl α-D-glucopyranose-6-yl)-1-(2-chloroethyl)-1-nitrosourea]",–,–,–,6/6,> 700,63.4,560,160,2.52
"CC(C)CO[C@H]1O[C@H](CO)[C@H](N(CC(C)C)C(=O)N(CCCl)N=O)[C@H](O)[C@H]1O [Compound 129, 3-isobutyl-3-(isobutyl α-D-garactopyranose-4-yl)-1-(2-chloroethyl)-1-nitrosourea]",600,200,5.21,3/6,> 350,38.4,–,–,–
"CCCCCCO[C@H]1O[C@H](CN(C(=O)N(CCCl)N=O)C(C)COC)[C@@H](O)[C@H](O)[C@H]1O (stereo partly drawn) [Compound 27, 3-(1-methyl-2-methoxyethyl)-3-(n-hexyl α-D-glucopyranose-6-yl)-1-(2-chloroethyl)-1-nitrosourea]",505,170,4.67,5/6,> 630,36.4,–,–,–
"CCC(C)OC1OC(CO)C(O)C(N(CC(C)C)C(=O)N(CCCl)N=O)C1O [Compound 84, 3-isobutyl-3-(sec-butyl α-D-glucopyranose-3-yl)-1-(2-chloroethyl)-1-nitrosourea]",695,220,5.8,3/6,> 355,37.9,–,–,–
"CCCCCCO[C@H]1O[C@H](CN(CC(C)C)C(=O)N(CCCl)N=O)[C@@H](O)[C@H](O)[C@H]1O [Compound 26, 3-isobutyl-3-(n-hexyl α-D-glucopyranose-6-yl)-1-(2-chloroethyl)-1-nitrosourea]",415,140,4.63,3/6,> 370,30.2,–,–,–
"CC(C)CN(C[C@H]1O[C@H](OCc2ccccc2)[C@H](O)[C@@H](O)[C@@H]1O)C(=O)N(CCCl)N=O [Compound 54, 3-isobutyl-3-(benzyl α-D-glucopyranose-6-yl)-1-(2-chloroethyl)-1-nitrosourea]",450,150,3.93,4/6,> 450,38.2,–,–,–
"CCC(C)O[C@H]1O[C@H](CN(CCC(C)(C)C)C(=O)N(CCCl)N=O)[C@@H](O)[C@H](O)[C@H]1O (stereo partly drawn) [Compound 190, 3-(3,3-dimethyl-n-butyl)-3-(sec-butyl α-D-glucopyranose-6-yl)-1-(2-chloroethyl)-1-nitrosourea]",470,150,3.12,6/6,> 700,48.1,–,–,–
"COc1ccc(CO[C@H]2O[C@H](CN(C(=O)N(CCCl)N=O)C(C)(C)C)[C@@H](O)[C@H](O)[C@H]2O)cc1 [Compound 182, 3-tert-butyl-3-(p-methoxybenzyl α-D-glucopyranose-6-yl)-1-(2-chloroethyl)-1-nitrosourea]",420,140,3.49,5/6,> 620,40.1,–,–,–
"COC(C)CN(C[C@H]1O[C@H](OC2CCCCC2)[C@H](O)[C@@H](O)[C@H]1O)C(=O)N(CCCl)N=O (stereo partly drawn) [Compound 103, 3-(2-methoxy-n-propyl)-3-(cyclohexyl α-D-galactopyranose-6-yl)-1-(2-chloroethyl)-1-nitrosourea]",685,200,3.63,5/6,> 625,55.1,–,–,–
